Experimental data reported in US8399495B2, “Talarazole metabolites” (Stiefel Laboratories, Inc., priority 2006, dated 2013).

Experiments:
[1] = Metabolite radioprofiling of plasma, urine and feces, mouse; type: in vivo; conditions: for Feces % Dose as the component / Plasma 0-24 h AUC (% Sample) / Plasma 0-24 h AUC of the radioactive component / Urine % Dose as the component: mouse (5 mg/kg) oral 14C-talarozole; for Urine % Dose as the component: urine 0-24 h; for Plasma 0-24 h AUC, total radioactivity: mouse (5 mg/kg)
Description: (§1) Male and female CD-1 mice (19-29 g, n=3/sex/timepoint for blood sampling, n=3/sex for mass balance), Sprague Dawley rats (0.205-0.237 kg, n=3/sex/timepoint for blood sampling, n=3/sex for mass balance) and beagle dogs (7-12 kg, n=3) were given a single oral dose of ^14C-labeled talarozole in 20% hydroxyl propyl B-cyclodextrin at 5 mg/kg. Healthy human male volunteers (76.6-107.9 kg, n=5) were dosed with a single oral dose of 4 mg ^14C-labeled rambazole in ethanol. Blood samples were collected at selected timepoints after dosing and plasma was prepared. Urine and feces were collected for 2, 7 and 8 days. For the human study, up to 288 hours post-dose and semen samples were obtained 2 and 4 hours post-dose. Radioactivity in various matrices were measured by liquid scintillation counting (LSC). Select plasma, urine and fecal samples were subjected to metabolite radioprofiling and characterization, and in the human study, semen samples. Metabolite radioprofiling was accomplished using HPLC with fraction collection followed by solid scintillation counting (Packard TopCount—see representative HPLC run data below). Radioactivity peaks were integrated and the percent distribution of individual metabolites in each sample was determined. Metabolite characterization and identification were accomplished by LC/MS (Finnigan MAT LCQ in positive or negative ESI mode) in conjunction with an appropriate radioactive monitor (RAM). For all species, plasma, urine and fecal samples were pooled across animals and analyzed. Plasma was analyzed at several time-points out to 24 hours. Urine was analyzed over one time-interval (0-24 hours for mouse, 0-48 hours for rat, 0-72 hours for dog, and for in the human study, 0-12, 12-24, 24-48, 0-48 hours. Feces was analyzed over 2-3 time intervals (0-24 and 24-48 hours for mouse and rat; 0-24, 24-48, and 48-72 hours for male dogs; and 24-48, 48-72, and 72-96 hours for female dogs). In the human study, feces were analyzed for 0-48, 48-96, 96-144, 144-192, 192-288, 0-144, 144-288 and 0-288 hours. PK parameters for ^14C-labeled talarozole radioactivity was determined from the mean (mouse and rat) or individual (dog and human) plasma concentration versus time data. PK parameter values were determined by non-compartmental methods using WinNonlin™. • HPLC data for separations described in Example 1: • LC system: Waters 2695 Separations Module • Analytic column: C18 column, 4.6×150 mm, 3 μm • Flow rate: 1.0 mL/min • Mobile phase A: 2% HCOOH in H2O (pH 3.2) • Mobile phase B: CH3CN • Gradient: […]

[2] = Pharmacokinetics of radioactivity in plasma after oral 14C-labeled talarozole, human; type: in vivo; conditions: male, single oral 4 mg
Text: (§2) Mouse, rat, dog and human were the species used for the safety evaluations of talarozole. More specifically, the disposition of ^14C-labeled talarozole was examined in mice, rats, dogs and humans after oral administration to provide information regarding the absorption, metabolism and excretion of talarozole.
Male and female CD-1 mice (19-29 g, n=3/sex/timepoint for blood sampling, n=3/sex for mass balance), Sprague Dawley rats (0.205-0.237 kg, n=3/sex/timepoint for blood sampling, n=3/sex for mass balance) and beagle dogs (7-12 kg, n=3) were given a single oral dose of ^14C-labeled talarozole in 20% hydroxyl propyl B-cyclodextrin at 5 mg/kg. […] Radioactivity in various matrices were measured by liquid scintillation counting (LSC). […] Radioactivity peaks were integrated and the percent distribution of individual metabolites in each sample was determined. […] For all species, plasma, urine and fecal samples were pooled across animals and analyzed. Plasma was analyzed at several time-points out to 24 hours. […] PK parameter values were determined by non-compartmental methods using WinNonlin™. • HPLC data for separations described in Example 1: • LC system: Waters 2695 Separations Module • Analytic column: C18 column, 4.6×150 mm, 3 μm • Flow rate: 1.0 mL/min • Mobile phase A: 2% HCOOH in H2O (pH 3.2) • Mobile phase B: CH3CN • Gradient: […]

[3] = Pharmacokinetics of radioactivity in plasma after oral 14C-labeled talarozole, rat; type: in vivo; conditions: single oral 5 mg/kg; for AUC0-t: 0-48 h
Text: as §2
as §1, with “Metabolite characterization and identification were accomplished by LC/MS (Finnigan MAT LCQ in positive or negative ESI mode) in conjunction with an appropriate radioactive monitor (RAM).” left out

[4] = Excretion of radioactivity (mass balance), rat; type: in vivo; conditions: 0-168 h, oral 5 mg/kg; for % in Feces (percent of dose recovered, total radioactivity) / % in Urine (percent of dose recovered, total radioactivity): 5 mg/kg
Text: as §2, §1

[5] = Pharmacokinetics of radioactivity in plasma after oral 14C-labeled talarozole, dog; type: in vivo; conditions: single oral 5 mg/kg; for AUC0-t: 0-168 h
Text: as §2
as §1, with “Metabolite characterization and identification were accomplished by LC/MS (Finnigan MAT LCQ in positive or negative ESI mode) in conjunction with an appropriate radioactive monitor (RAM).” left out

IP-10 = assay: Suppression of IP-10 production by IFNγ-activated human epidermal keratinocytes; type: cell-based
Text: Talarozole Metabolites for Suppression of IP-10 Production by IFNγ-Activated Human Epidermal Keratinocytes
IP-10, a member of the CXC subfamily of chemokines, attracts T-lymphocytes and natural killer cells. […] In particular, epidermal keratinocytes of psoriatic lesions express elevated levels of IP-10. Suppression of IP-10 expression by activated keratinocytes may represent a novel target for therapeutic intervention of inflammatory skin disorders.

[6] = Pharmacokinetics of radioactivity in plasma after oral 14C-labeled talarozole, mouse; type: in vivo; conditions: single oral 5 mg/kg; for AUC0-t: 0-48 h
Text: as §2
as §1, with “Metabolite characterization and identification were accomplished by LC/MS (Finnigan MAT LCQ in positive or negative ESI mode) in conjunction with an appropriate radioactive monitor (RAM).” left out

[7] = Metabolite radioprofiling of plasma, urine and feces, dog; type: in vivo; conditions: for Feces % Dose as the component / Plasma 0-24 h AUC (% Sample) / Plasma 0-24 h AUC of the radioactive component: dog (5 mg/kg) oral 14C-talarozole; for Plasma 0-24 h AUC, total radioactivity: dog (5 mg/kg)
Description: as §1

[8] = system: vaginal keratinization induced by estrogenic treatment; assay: Inhibition of vaginal keratinization induced by estrogenic treatment in ovariectomized rats; type: in vivo, rat; conditions: ovariectomized rats with estrogenic treatment; M4 oral during 3 days
Text: Effects on Epithelial Differentiation in Rat Vagina: Inhibition of Vaginal Keratinization Induced by Estrogenic Treatment in Ovariectomized Rats by Oral Administration of Talarozole Metabolite M4
This animal model is based on the observation that retinoic acid (RA) suppresses the keratinization process in the stratified squamous epithelium of the vagina induced by estrogenic treatment in ovariectomized rats (Sietsema & DeLuca, 1982; Geiger & Weiser, 1989).

[9] = Excretion of radioactivity (mass balance), mouse; type: in vivo; conditions: 0-48 h, oral 5 mg/kg; for % in Feces (percent of dose recovered, total radioactivity) / % in Urine (percent of dose recovered, total radioactivity): 5 mg/kg
Text: as §2, §1

[10] = Excretion of radioactivity (mass balance), dog; type: in vivo; conditions: 0-192 h, oral 5 mg/kg; for % in Urine (percent of dose recovered, total radioactivity) / % in Feces (percent of dose recovered, total radioactivity): 5 mg/kg
Text: as §2, §1

[11] = female, listed as 14C-Talarozole
[12] = female, listed as 14C-labeled talarozole
[13] = male, listed as 14C-labeled talarozole

SMILES: CCC(CC)[C@H](c1ccc(Nc2nc3ccccc3s2)cc1)n1cncn1 [Talarozole, (R)—N-[4-[2-ethyl-1-(1H-1,2,4-triazole-1-yl)butyl]phenyl]-2-benzothiazolamine]
- Feces % Dose as the component ([1]; female): 7.04 % Dose
- Plasma 0-24 h AUC (% Sample) ([1]; female): 21.48%
- Plasma 0-24 h AUC of the radioactive component ([1]; female): 1420.2 ng·h/g
- Urine % Dose as the component ([1]; female): No unchanged ^14C-labeled talarozole was detected
- Feces % Dose as the component ([1]; male): 6.11 % Dose
- Plasma 0-24 h AUC (% Sample) ([1]; male): 15.15%
- Plasma 0-24 h AUC of the radioactive component ([1]; male): 1377.5 ng·h/g
- Urine % Dose as the component ([1]; male): No unchanged ^14C-labeled talarozole was detected
- Plasma 0-24 h AUC, total radioactivity ([1]; female): 66113.0 ng*hr/g F
- Plasma 0-24 h AUC, total radioactivity ([1]; male): 9092.5 ng·h/g/M
- AUC0-∞ [2]: 301 hr-ng equiv/g
- AUC0-t ([2]; 0-48 h): 269 hr-ng equiv/g
- AUC0-∞ ([3]; female): 7810 hr-ng equiv/g
- AUC0-t ([3]; female): 7670 hr-ng equiv/g
- AUC0-∞ ([3]; male): 6960 hr-ng equiv/g
- AUC0-t ([3]; male): 6720 hr-ng equiv/g
- % in Cage Rinse (percent of dose recovered) ([4]; female): 3.88%
- Total % Recovered ([4]; female): 95.4%
- % in Feces (percent of dose recovered, total radioactivity) [4, 11]: 77.57 F %
- % in Urine (percent of dose recovered, total radioactivity) [4, 11]: 10.07 F %
- % in Feces (percent of dose recovered, total radioactivity) [4, 12]: 77.5%
- % in Urine (percent of dose recovered, total radioactivity) [4, 12]: 10.1%
- % in Cage Rinse (percent of dose recovered) ([4]; male): 4.01%
- Total % Recovered ([4]; male): 95.2%
- % in Feces (percent of dose recovered, total radioactivity) ([4]; male, listed as 14C-Talarozole): 77.53 M %
- % in Urine (percent of dose recovered, total radioactivity) ([4]; male, listed as 14C-Talarozole): 6.33 M %
- % in Feces (percent of dose recovered, total radioactivity) [4, 13]: 77.5%
- % in Urine (percent of dose recovered, total radioactivity) [4, 13]: 6.3%
- AUC0-∞ ([5]; female): 21902 hr-ng equiv/g
- AUC0-t ([5]; female): 21388 hr-ng equiv/g
- AUC0-∞ ([5]; male): 19970 hr-ng equiv/g
- AUC0-t ([5]; male): 19555 hr-ng equiv/g
- IP-10 expression (IP-10): down regulate dose-dependently
- AUC0-∞ ([6]; female): 6767 hr-ng equiv/g
- AUC0-t ([6]; female): 6632 hr-ng equiv/g
- AUC0-∞ ([6]; male): 10276 hr-ng equiv/g
- AUC0-t ([6]; male): 10215 hr-ng equiv/g
- Feces % Dose as the component ([7]; female): 1.59 % Dose
- Plasma 0-24 h AUC (% Sample) ([7]; female): 23.20%
- Plasma 0-24 h AUC of the radioactive component ([7]; female): 4228.0 ng·h/g
- Feces % Dose as the component ([7]; male): 1.22 % Dose
- Plasma 0-24 h AUC (% Sample) ([7]; male): 24.24%
- Plasma 0-24 h AUC of the radioactive component ([7]; male): 4132.9 ng·h/g
- Plasma 0-24 h AUC, total radioactivity ([7]; female): 18225 ng*hr/g F
- Plasma 0-24 h AUC, total radioactivity ([7]; male): 17047 ng·h/g/M
- ED50-value for complete suppression (keratinization score=0) [8]: 1.0 mg/kg/day
- % in Cage Rinse (percent of dose recovered) ([9]; female): 0.8%
- Total % Recovered ([9]; female): 95.4%
- % in Feces (percent of dose recovered, total radioactivity) [9, 11]: 91.59 F %
- % in Urine (percent of dose recovered, total radioactivity) [9, 11]: 2.96 F %
- % in Feces (percent of dose recovered, total radioactivity) [9, 12]: 91.6%
- % in Cage Rinse (percent of dose recovered) ([9]; male): 4.4%
- Total % Recovered ([9]; male): 91.4%
- % in Feces (percent of dose recovered, total radioactivity) ([9]; male, listed as 14C-Talarozole): 82.70 M %
- % in Urine (percent of dose recovered, total radioactivity) ([9]; male, listed as 14C-Talarozole): 4.27 M %
- % in Feces (percent of dose recovered, total radioactivity) [9, 13]: 82.7%
- % in Urine (percent of dose recovered, total radioactivity) ([10]; listed as 14C-Talarozole): 4.13 M %
- % in Urine (percent of dose recovered, total radioactivity) ([10]; listed as 14C-labeled talarozole): 4.1%
- % in Cage Rinse (percent of dose recovered) ([10]; female): 0.5%
- Total % Recovered ([10]; female): 92.4%
- % in Feces (percent of dose recovered, total radioactivity) [10, 11]: 89.00 F %
- % in Urine (percent of dose recovered, total radioactivity) [10, 11]: 2.89 F %
- % in Feces (percent of dose recovered, total radioactivity) [10, 12]: 89.0%
- % in Urine (percent of dose recovered, total radioactivity) [10, 12]: 2.9%
- % in Cage Rinse (percent of dose recovered) ([10]; male): 0.8%
- Total % Recovered ([10]; male): 93.6%
- % in Feces (percent of dose recovered, total radioactivity) ([10]; male, listed as 14C-Talarozole): 88.66 M %
- % in Feces (percent of dose recovered, total radioactivity) [10, 13]: 88.7%
